Experimental data as given in patent publication US20220118117A1, “MODULATORS OF METABOTROPIC GLUTAMATE RECEPTOR 4” (The General Hospital Corporation, priority 2019, published 2022).
Where “and” joins values, the source holds several entries; their conditions need not be identical. Identical values can stand only once.

Assays:
plasma stability = assay type: in vitro ADME; conditions: rat plasma; for Plasma stability, remaining of the intact test compound: 37° C.
Protocol: Briefly, each tube is added 882 μL of 1:1 diluted rat plasma with phosphate buffer (pH 7.4). 18 μL (100 μM) of DMSO stock solution of the test compound (4, 13 and 15) or positive control compound (Diltiazem) was added to make a final compound concentration 2 μM in the plasma solution and final DMSO content 2%. The mixture was incubated at 37° C. After the incubation at 0, 15, 30, 60, and 120 min time points, aliquots of 50 μL samples were quenched with 100 μL of ice-cold acetonitrile with 25 μM of the internal reference (for HPLC analysis), respectively. The quenched samples were centrifuged at 10,000×g, and the supernatant was analyzed by HPLC. The percentage of remaining intact test compound was calculated by (peak area at the specific time point)/(peak area at 0 min)×100. Every sample was assayed three times.

microsomal stability = assay type: in vitro ADME, Sprague-Dawley rat; conditions: rat liver microsomes, NADPH
Protocol: First, Sprague-Dawley rat liver microsomes (0.5 mg/mL, Sigma-Aldrich, No. M9066) was incubated with PBS (50 mM, pH=7.4) in a reaction tube at 37° C. for 3 min. To the reaction tube were added the test compound (2 μM) and then cofactor, NADPH (1 mM), to start the reaction. The mixture was shaken in a water bath at 37° C. At different time points (0, 5, 10, 15, 30 min), aliquots (50 μL) were removed and added to 100 μl of cold acetonitrile with internal standard (25 μM) to quench the reaction. The precipitated material was by centrifugation (10,000×g, 10 min, 4° C.), and the supernatant was analyzed by RP-HPLC (Column: Phenomenex Luna© 5 μm, Cis, 100 Å, 250×4.6 mm). The RP-HPLC was carried out by using a 15-min gradient method: eluent A: 0.1% formic acid/H2O; eluent B: 0.1% formic acid/CH3CN; gradient: […]; 5% B to 95% B from 1 to 9 min, 95% B from 9 to 12 min, 95% to 5% B from 12 to 13 min, 5% B from 13 to 15 min; flow rate at 0.7 mL/min.
The in peak area ratio (test compound peak area at a time point/peak area at 0 min time point) was plotted against time and the gradient of the line was determined. Subsequently, the half-life (t1/2) was calculated as 0.693/k, where the elimination rate constant k equals to −gradient. V (μL/mg) was obtained as a ratio of volume of incubation […]/protein in the incubation (mg). Finally, the intrinsic clearance (CLint) (μL/min/mg protein) was calculated as V*0.693/t1/2.

solution stability = assay type: physicochemical
Protocol: Three pH values, 5, 7.4 and 9.4 were selected to check the solution stability. Aqueous solutions with different pH values were established using the following buffers: sodium acetate-KCl—HCl buffer (20 mM, pH 5.0), phosphate buffer (20 mM, pH 7.4), and boric acid-KCl—NaOH buffer (20 mM, pH 9.4). 891 μL of each pH buffer was placed in different tubes. 9 μL (1 mM) of the sample stock (4, 13, 15 and Diltiazem) was transferred to a particular buffer tube and mixed just before the time 0 min. The mixture was vortexed and incubated at 37° C. After the incubation at the different time points (0, 15, 30, 60, and 120 min), aliquots of 50 μL samples were quenched with 100 μL of ice-cold acetonitrile with 25 μM internal reference, respectively, and analyzed by HPLC. The percentage of the remaining intact compound was calculated by (peak area at the specific time point)/(peak area at 0 min)×100. Every sample was assayed three times.

mGluR4 [1] = target: mGluR4 (Homo sapiens, UniProt Q14833); assay: competitive binding (radioligand replacement) assay with [3H]4 in mGluR4 transfected CHO cells; parameters: expressed in transfected cells; host or cells: CHO cells; conditions: 2 nM [3H]4, read-out: IC50 (nM), affinity to mGluR4
Protocol: In Vitro mGluR4 Binding Assay. CHO cells expressing mGluR4 were used for all binding assay protocols. For competitive binding, 2 nM of [^3H]4 was used together with increased concentrations of test compounds ranging from 0.01 nM to 10 μM. Each test tube contained 50 000 freshly harvested CHO cells expressing mGluR4 cultured in HAMs cell culture medium with 100 nM of glutamate, penicillin-streptomycin (100 units), and 1 mM G418. [3H]4 (2 nM) was added to the cell extract with and without test compounds on ice and then incubated for 30 min at room temperature. Samples were centrifuged at 1200 rpm for 10 min at 4° C. and washed three times with a cold cell culture medium as a washing buffer. Samples were lysed by adding 100 μL of 0.5% NaOH and heated using a heating block (56° C., 30 min). Samples were cooled with an ice bath and transferred to Solvent-Saver scintillation vials (VWR International LLC.). To obtain binding parameters, the scintillation liquid (PerkinElmer, Optima Gold) was added prior to counting with a scintillation counter (Packard TriCarb Model, 1 min/vial). Nonspecific binding was determined using 10 μM of nonradioactive test compound, and specific binding was determined by extracting the nonspecific binding from total binding. All measurements were done in triplicate and analyzed with GraphPad Prism software (GraphPad Software Inc.).

mGluR4 [2] = target: T1, mGluR4 (Rattus norvegicus, UniProt P31423); assay: PET blocking studies of [18F]15 binding; assay type: in vivo, Sprague Dawley rats
T1 construct: from tissue; host or cells: brain of living male Sprague Dawley rats
Protocol: PET Imaging of [^18F]15 in Rats. Altogether 24 normal male Sprague Dawley rats were used for the imaging studies comprising 15 baseline studies and 15 blocking studies. Rats were anaesthetized with isoflurane/nitrous oxide (1.0-1.5% isoflurane, with oxygen flow of 1-1.5 L/min), and catheter was installed into tail vein for the administration of [^18F]15. Dynamic volumetric PET data was acquired with a PET-CT scanner for 60 min (Triumph-II, Tri-Foil Imaging, Northridge, Calif.). The vital signals such as heart rate and respiration rate were monitored during scanning period. PET data acquisition was started immediately after administration of radioactivity with the dose range of 18-34 MBq depending on the size of the rat followed by CT imaging to obtain anatomical information and data for attenuation correction of PET data. PET data was processed by using maximum-likelihood expectation-maximization (MLEM) algorithm with 30 iterations to dynamic volumetric images, and corrected for uniformity, scatter, and attenuation. The CT data was processed by the modified Feldkamp algorithm using matrix volumes of 512×512×512 and pixel size of […]. Co-registration of CT and PET images and analysis of PET images were carried out using PMOD3.2 software (PMOD Technology, Zurich, Switzerland).
For blocking studies, the same scanning protocols were used as for the baseline studies. For mGluR4 blocking experiments, 1, 2 or 3 mg/kg of 13 or 15 dissolved in a saline solution with 10% DMSO, 5% Tween-20 and 85% PBS was injected 1 min before iv administration of [^18F]15.

T1 sequence (P31423 33-912): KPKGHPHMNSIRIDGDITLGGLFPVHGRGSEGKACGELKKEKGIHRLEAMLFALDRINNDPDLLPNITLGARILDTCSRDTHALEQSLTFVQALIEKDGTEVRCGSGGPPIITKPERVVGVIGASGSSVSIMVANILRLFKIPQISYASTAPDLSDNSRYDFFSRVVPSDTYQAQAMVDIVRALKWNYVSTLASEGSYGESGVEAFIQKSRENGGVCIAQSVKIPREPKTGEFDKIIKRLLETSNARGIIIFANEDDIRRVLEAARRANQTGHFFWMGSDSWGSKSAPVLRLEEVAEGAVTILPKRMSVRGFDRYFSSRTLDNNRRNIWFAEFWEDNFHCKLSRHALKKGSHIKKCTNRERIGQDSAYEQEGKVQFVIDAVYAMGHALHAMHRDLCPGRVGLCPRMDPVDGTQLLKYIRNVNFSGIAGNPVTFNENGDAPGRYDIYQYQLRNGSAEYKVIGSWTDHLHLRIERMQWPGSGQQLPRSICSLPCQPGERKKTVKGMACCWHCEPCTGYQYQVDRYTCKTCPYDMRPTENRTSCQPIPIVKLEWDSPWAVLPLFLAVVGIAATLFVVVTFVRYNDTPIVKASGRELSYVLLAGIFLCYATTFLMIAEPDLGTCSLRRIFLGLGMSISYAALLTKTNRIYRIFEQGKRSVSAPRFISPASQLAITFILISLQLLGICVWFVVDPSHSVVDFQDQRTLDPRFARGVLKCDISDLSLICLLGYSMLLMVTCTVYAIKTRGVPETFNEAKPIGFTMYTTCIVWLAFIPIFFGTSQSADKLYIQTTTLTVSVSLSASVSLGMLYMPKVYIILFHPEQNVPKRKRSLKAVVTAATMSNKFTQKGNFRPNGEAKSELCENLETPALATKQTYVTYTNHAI
mGluR4 (Homo sapiens, UniProt Q14833), sequence (Q14833 33-912): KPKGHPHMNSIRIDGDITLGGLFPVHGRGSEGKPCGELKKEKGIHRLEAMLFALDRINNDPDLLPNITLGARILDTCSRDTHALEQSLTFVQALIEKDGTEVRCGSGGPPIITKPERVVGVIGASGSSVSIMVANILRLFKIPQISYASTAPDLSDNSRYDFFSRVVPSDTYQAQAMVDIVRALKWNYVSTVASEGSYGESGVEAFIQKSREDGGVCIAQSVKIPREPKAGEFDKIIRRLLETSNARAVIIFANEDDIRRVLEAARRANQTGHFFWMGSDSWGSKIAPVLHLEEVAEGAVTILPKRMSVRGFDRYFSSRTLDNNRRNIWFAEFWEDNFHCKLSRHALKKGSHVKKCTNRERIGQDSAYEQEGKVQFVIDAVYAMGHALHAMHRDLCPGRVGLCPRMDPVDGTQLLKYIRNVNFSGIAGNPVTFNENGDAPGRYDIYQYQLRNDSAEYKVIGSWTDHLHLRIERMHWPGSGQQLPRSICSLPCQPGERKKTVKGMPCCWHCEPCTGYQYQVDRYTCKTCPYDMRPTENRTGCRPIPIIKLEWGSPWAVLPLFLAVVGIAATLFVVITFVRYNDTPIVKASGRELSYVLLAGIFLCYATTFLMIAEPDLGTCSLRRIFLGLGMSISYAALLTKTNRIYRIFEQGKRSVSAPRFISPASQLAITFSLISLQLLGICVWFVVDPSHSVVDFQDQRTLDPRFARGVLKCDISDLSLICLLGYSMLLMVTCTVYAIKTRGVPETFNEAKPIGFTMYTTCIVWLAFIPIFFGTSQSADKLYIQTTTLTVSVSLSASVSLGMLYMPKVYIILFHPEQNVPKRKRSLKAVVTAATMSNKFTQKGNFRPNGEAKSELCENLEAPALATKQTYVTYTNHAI

Plasma stability, remaining of the intact test compound (plasma stability; 0 min) [%]	Plasma stability, remaining of the intact test compound (plasma stability; 15 min) [%]	Plasma stability, remaining of the intact test compound (plasma stability; 30 min) [%]	Plasma stability, remaining of the intact test compound (plasma stability; 60 min) [%]	Plasma stability, remaining of the intact test compound (plasma stability; 120 min) [%]	The plasma stability, The intact ± SEM at 120 min (%) (plasma stability; 120 min)	The solution stability, The intact ± SEM at 120 min (%) (solution stability; pH = 5.0, 37° C.)	The solution stability, The intact ± SEM at 120 min (%) (solution stability; pH = 7.4, 37° C.)	The solution stability, The intact ± SEM at 120 min (%) (solution stability; pH = 9.4, 37° C.)	blocking effect on [18F]15 binding (mGluR4 [2]; 1 mg/kg, pre-administration)	blocking of [18F]15 binding in the whole brain (mGluR4 [2]; blocking agent injected 1 min before [18F]15)	blocking of [18F]15 binding in striatum (mGluR4 [2]; dose 1 mg/kg) [%]	blocking of [18F]15 binding in striatum (mGluR4 [2]; dose 2 mg/kg) [%]	blocking of [18F]15 binding in striatum (mGluR4 [2]; dose 3 mg/kg) [%]	Compound	The microsome stability Clint (μL/min/mg protein) (microsomal stability)	The microsome stability t1/2 (microsomal stability)	IC50 (mGluR4 [1]) [nM]
100.00 ± 0.21	95.34 ± 12.08	95.27 ± 7.76	93.62 ± 8.76	91.52 ± 2.49	91.5 ± 2.5	85.9 ± 0.8	87.9 ± 3.4	89.3 ± 1.3	25-30%	22-25%	18	20	28	CSc1cc(NC(=O)c2ccccn2)ccc1Cl [Compound 13]	54.8	25.30 min	3.4
100.00 ± 8.98	87.33 ± 9.53	75.23 ± 4.03	58.91 ± 13.39	48.97 ± 10.63	49.0 ± 10.6	94.7 ± 1.4	99.0 ± 5.7	69.8 ± 2.6	–	–	–	–	–	COc1ccc([C@@H]2Sc3ccccc3N(CCN(C)C)C(=O)[C@@H]2OC(C)=O)cc1 [Diltiazem]	–	–	–

Compound	Plasma stability, remaining of the intact test compound (plasma stability; 0 min) [%]	Plasma stability, remaining of the intact test compound (plasma stability; 15 min) [%]	Plasma stability, remaining of the intact test compound (plasma stability; 30 min) [%]	Plasma stability, remaining of the intact test compound (plasma stability; 60 min) [%]	Plasma stability, remaining of the intact test compound (plasma stability; 120 min) [%]	The plasma stability, The intact ± SEM at 120 min (%) (plasma stability; 120 min)	The solution stability, The intact ± SEM at 120 min (%) (solution stability; pH = 5.0, 37° C.)	The solution stability, The intact ± SEM at 120 min (%) (solution stability; pH = 7.4, 37° C.)	The solution stability, The intact ± SEM at 120 min (%) (solution stability; pH = 9.4, 37° C.)	blocking effect on [18F]15 binding (mGluR4 [2]; 1 mg/kg, pre-administration)	blocking of [18F]15 binding in the whole brain (mGluR4 [2]; blocking agent injected 1 min before [18F]15)	blocking of [18F]15 binding in striatum (mGluR4 [2]; dose 1 mg/kg) [%]	blocking of [18F]15 binding in striatum (mGluR4 [2]; dose 2 mg/kg) [%]	blocking of [18F]15 binding in striatum (mGluR4 [2]; dose 3 mg/kg) [%]	The microsome stability Clint (μL/min/mg protein) (microsomal stability)	The microsome stability t1/2 (microsomal stability)	IC50 (mGluR4 [1]) [nM]
COc1cc(NC(=O)c2ccccn2)ccc1Cl [Compound 4]	100.00 ± 4.65	94.45 ± 1.65	97.56 ± 11.8	100.35 ± 8.04	98.21 ± 6.32	98.2 ± 6.3	92.7 ± 3.1	97.3 ± 1.1	89.1 ± 2.1	–	–	–	–	–	96.2	14.41 min and 14.4 min	5.1
